The values that follow are results of earlier work, collected in US20210260012A1, “COMPOSITIONS FOR THE PREVENTION AND TREATMENT OF CUTANEOUS AFFECTIONS” (I.C.F. SRL, priority 2018, published 2021).

The subject of this data set is biofilms from E. coli. To be noted: at high concentrations.

With `CC(=O)NC(CS)C(=O)O` (stereo not drawn) [Acetylcysteine, α-acetamido-β-mercaptopropanoic acid], the “reduction in the mass of biofilms” value is given as “up to 55%”.
